What was measured:
[1] = Cytotoxicity against human non-small cell lung cancer cells assessed as cellular growth at 10 uM after 48 hrs by SRB assay relative to control; type: functional, Cancer cell lines
[2] = Cytotoxicity against human ovarian cancer cells assessed as cellular growth at 10 uM after 48 hrs by SRB assay relative to control; type: functional, Cancer cell lines
[3] = Cytotoxicity against human renal cancer cells assessed as cellular growth at 10 uM after 48 hrs by SRB assay relative to control; type: functional, Cancer cell lines
[4] = Cytotoxicity against human CNS cancer cells assessed as cellular growth at 10 uM after 48 hrs by SRB assay relative to control; type: functional, Cancer cell lines
[5] = Cytotoxicity against human prostate cancer cells assessed as cellular growth at 10 uM after 48 hrs by SRB assay relative to control; type: functional, Cancer cell lines
[6] = Cytotoxicity against human breast cancer cells assessed as cellular growth at 10 uM after 48 hrs by SRB assay relative to control; type: functional, Cancer cell lines
[7] = system: HT-29; assay: Cytotoxicity against human HT-29 cells assessed as cellular growth at 100 uM after 48 hrs by SRB assay relative to control; type: functional
[8] = system: PC-3; assay: Cytotoxicity against human PC3 cells assessed as cellular growth at 100 uM after 48 hrs by SRB assay relative to control; type: functional
[9] = system: PC-3; assay: Cytotoxicity against human PC3 cells assessed as cellular growth at 0.01 uM after 48 hrs by SRB assay relative to control; type: functional
[10] = system: PC-3; assay: Cytotoxicity against human PC3 cells assessed as cellular growth at 1 uM after 48 hrs by SRB assay relative to control; type: functional
[11] = system: HT-29; assay: Cytotoxicity against human HT-29 cells assessed as cellular growth at 1 uM after 48 hrs by SRB assay relative to control; type: functional
[12] = system: HT-29; assay: Cytotoxicity against human HT-29 cells assessed as cellular growth at 0.01 uM after 48 hrs by SRB assay relative to control; type: functional
[13] = system: PC-3; assay: Cytotoxicity against human PC3 cells assessed as cellular growth at 0.1 uM after 48 hrs by SRB assay relative to control; type: functional
[14] = system: HT-29; assay: Cytotoxicity against human HT-29 cells after 48 hrs by SRB assay; type: functional; conditions: HT-29, 48 h
[15] = system: HT-29; assay: Cytotoxicity against human HT-29 cells assessed as cellular growth at 0.1 uM after 48 hrs by SRB assay relative to control; type: functional
[16] = system: SW-620; assay: Cytotoxicity against human SW620 cells assessed as cellular growth at 1 uM after 48 hrs by SRB assay relative to control; type: functional
[17] = system: MOLT-4; assay: Cytotoxicity against human MOLT4 cells after 48 hrs by SRB assay; type: functional; conditions: MOLT-4, 48 h
[18] = system: CAKI-1; assay: Cytotoxicity against human Caki1 cells assessed as cellular growth at 0.01 uM after 48 hrs by SRB assay relative to control; type: functional
[19] = system: MOLT-4; assay: Cytotoxicity against human MOLT4 cells assessed as cellular growth at 0.01 uM after 48 hrs by SRB assay relative to control; type: functional
[20] = system: CAKI-1; assay: Cytotoxicity against human Caki1 cells assessed as cellular growth at 0.1 uM after 48 hrs by SRB assay relative to control; type: functional
[21] = system: RPMI-8226; assay: Cytotoxicity against human RPMI8226 cells after 48 hrs by SRB assay; type: functional; conditions: RPMI-8226, 48 h
[22] = system: HCC 2998; assay: Cytotoxicity against human HCC2998 cells assessed as cellular growth at 100 uM after 48 hrs by SRB assay relative to control; type: functional
[23] = system: HCC 2998; assay: Cytotoxicity against human HCC2998 cells assessed as cellular growth at 1 uM after 48 hrs by SRB assay relative to control; type: functional
[24] = system: RPMI-8226; assay: Cytotoxicity against human RPMI8226 cells assessed as cellular growth at 0.01 uM after 48 hrs by SRB assay relative to control; type: functional
[25] = system: MOLT-4; assay: Cytotoxicity against human MOLT4 cells assessed as cellular growth at 0.1 uM after 48 hrs by SRB assay relative to control; type: functional
[26] = system: HCC 2998; assay: Cytotoxicity against human HCC2998 cells assessed as cellular growth at 0.1 uM after 48 hrs by SRB assay relative to control; type: functional
[27] = system: RPMI-8226; assay: Cytotoxicity against human RPMI8226 cells assessed as cellular growth at 0.1 uM after 48 hrs by SRB assay relative to control; type: functional
[28] = system: CAKI-1; assay: Cytotoxicity against human Caki1 cells assessed as cellular growth at 100 uM after 48 hrs by SRB assay relative to control; type: functional
[29] = system: HCC 2998; assay: Cytotoxicity against human HCC2998 cells assessed as cellular growth at 0.01 uM after 48 hrs by SRB assay relative to control; type: functional
[30] = system: CAKI-1; assay: Cytotoxicity against human Caki1 cells assessed as cellular growth at 1 uM after 48 hrs by SRB assay relative to control; type: functional
[31] = system: RPMI-8226; assay: Cytotoxicity against human RPMI8226 cells assessed as cellular growth at 1 uM after 48 hrs by SRB assay relative to control; type: functional
[32] = read-out: LC50 (the source's name)
[33] = read-out: pLC50 (the source's name) (converted)

O=C(O)CCCn1c2c(sc3ccccc32)c(=O)n2nnc(-c3ccccc3)c12
Activity [1]: 85%
Activity [2]: 105%
Activity [3]: 75%
Activity [4]: 88%
Activity [5]: 92%
Activity [6]: 79%

O=C(CCCn1c2c(sc3ccccc32)c(=O)n2nnc(-c3ccccc3)c12)NCCc1c[nH]cn1
Activity [7]: -100%
Activity [8]: -51%
Activity [9]: 86%
Activity [10]: 33%
Activity [11]: 43%
Activity [12]: 113%
Activity [13]: 40%
GI50 ([14]; read-out: GI50): 0.674 µM
CC50 [14, 32]: 4.55 µM
TGI ([14]; read-out: TGI): 2.01 µM
GI50 ([14]; read-out: pGI50 (converted)): 0.676 µM
CC50 [14, 33]: 4.57 µM
TGI ([14]; read-out: pTGI (converted)): 2 µM
Activity [15]: 84%

CN1CCN(CCCn2c3c(sc4ncccc43)c(=O)n3nnc(-c4ccccc4)c23)CC1
Activity [16]: 83%
GI50 ([17]; read-out: GI50): 1.98 µM
CC50 [17, 32]: 11.5 µM
TGI ([17]; read-out: TGI): 4.45 µM
GI50 ([17]; read-out: pGI50 (converted)): 2 µM
CC50 [17, 33]: 11.5 µM
TGI ([17]; read-out: pTGI (converted)): 4.47 µM
Activity [18]: 97%
Activity [19]: 99%
Activity [20]: 86%
GI50 ([21]; read-out: GI50): 1.81 µM
CC50 [21, 32]: > 100 µM
TGI ([21]; read-out: TGI): 4.33 µM
GI50 ([21]; read-out: pGI50 (converted)): 1.82 µM
CC50 ([21]; read-out: pLC50 (converted)): > 100 µM
TGI ([21]; read-out: pTGI (converted)): 4.37 µM
Activity [22]: -76%
Activity [23]: 102%
Activity [24]: 110%
Activity [25]: 102%
Activity [26]: 99%
Activity [27]: 100%
Activity [28]: -90%
Activity [29]: 104%
Activity [30]: 85%
Activity [31]: 84%
